Data: patent publication US20240083900A1, “PYRAZOLO[1,5-A]PYRAZINE DERIVATIVES AS BTK INHIBITORS” (BIOGEN MA INC., priority 2020, published 2024)
Like-named read-outs stand apart in the source and are kept apart here.

What was measured:
[1] = molecular target: BTK (Homo sapiens (Human), UniProt Q06187); assay: In Vitro BTK Kinase Assay: Btk-PolyGAT-LS Assay; type: biochemical; conditions: BTK enzyme 0.25 nM, ATP 10 μM, polyGAT 100 nM, 30 minutes incubation, TRF readout; read-out: IC50
Procedure, shortened: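 Human BTK activity was measured with final 10 μM ATP and 100 nM polyGAT substrate in pH 7.5 Tris buffer with 10 mM MgCl2, DTT, Triton X-100 and casein.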

[2] = system: CD69 expression on CD19+ B cells in human whole blood stimulated with anti-human IgD; assay: In Vitro whole blood CD69 Assay; type: cell-based
[3] = Homo sapiens, B-cell, human heparinized whole blood, anti-human IgD stimulation overnight, percentage of CD19+ B cells expressing CD69, flow cytometry, read-out: IC50
[4] = human heparinized whole blood, anti-human IgD stimulation overnight, percentage of CD19+ B cells expressing CD69, flow cytometry, read-out: IC50

Chain of BTK (Q06187 whole entry): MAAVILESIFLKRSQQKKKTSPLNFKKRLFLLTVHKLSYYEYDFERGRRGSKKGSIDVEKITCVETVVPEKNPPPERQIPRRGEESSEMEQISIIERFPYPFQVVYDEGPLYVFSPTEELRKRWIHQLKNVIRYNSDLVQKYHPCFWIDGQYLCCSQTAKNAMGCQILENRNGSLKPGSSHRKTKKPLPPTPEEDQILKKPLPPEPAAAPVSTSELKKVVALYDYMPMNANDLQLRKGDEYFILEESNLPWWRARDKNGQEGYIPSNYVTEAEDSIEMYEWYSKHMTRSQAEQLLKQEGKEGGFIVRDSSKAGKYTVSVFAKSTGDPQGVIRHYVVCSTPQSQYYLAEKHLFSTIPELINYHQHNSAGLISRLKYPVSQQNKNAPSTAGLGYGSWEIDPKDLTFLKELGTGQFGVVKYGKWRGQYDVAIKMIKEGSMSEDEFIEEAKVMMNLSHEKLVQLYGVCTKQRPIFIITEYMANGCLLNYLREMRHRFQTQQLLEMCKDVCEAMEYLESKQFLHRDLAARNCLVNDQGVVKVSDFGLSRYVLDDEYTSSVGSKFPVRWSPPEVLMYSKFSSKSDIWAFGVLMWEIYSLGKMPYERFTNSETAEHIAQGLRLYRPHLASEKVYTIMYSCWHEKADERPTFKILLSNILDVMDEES

Row | Compound | IC50 [1] [µM] | IC50 [2, 3] [µM] | other results
1 | C#CC(=O)NCC1CCCCN1c1nc(-c2cnn(C)c2)cn2nccc12 (single isomer, unassigned) [Example 26 E2, N-[[1-[6-(1-methylpyrazol-4-yl)pyrazolo[1,5-a]pyrazin-4-yl]-2-piperidyl]methyl]prop-2-ynamide] | < 0.001 |  | IC50 ([2]; human heparinized whole blood, anti-human IgD stimulation overnight, percentage of CD19+ B cells expressing CD69, flow cytometry, listed as 26 E2, read-out: IC50): < 1 µM
2 | C=CC(=O)N1CCC[C@](F)(COc2nc(-c3cnn(C)c3)cn3nccc23)C1 [Example 187, (R)-1-(3-fluoro-3-(((6-(1-methyl-1H-pyrazol-4-yl)pyrazolo[1,5-a]pyrazin-4-yl)oxy)methyl)piperidin-1-yl)prop-2-en-1-one] | < 0.001 | < 1 | 
3 | C=CC(=O)N(C)[C@H]1C[C@@](C)(Oc2nc(-c3cnn(C)c3)cn3ncc(C4CC4)c23)C1 [Example 229, N-((1s,3s)-3-((3-cyclopropyl-6-(1-methyl-1H-pyrazol-4-yl)pyrazolo[1,5-a]pyrazin-4-yl)oxy)-3-methylcyclobutyl)-N-methylacrylamide] | < 0.001 | < 1 | 
4 | C=CC(=O)N(C)[C@H]1C[C@@](Oc2nc(-c3cnn(C)c3)cn3nccc23)(C2CC2)C1 [Example 104, N—((1r,3r)-3-cyclopropyl-3-((6-(1-methyl-1H-pyrazol-4-yl)pyrazolo[1,5-a]pyrazin-4-yl)oxy)cyclobutyl)-N-methylacrylamide] | 0.01 to 1 |  | IC50 [2, 4]: 1 to 10 µM
5 | C=CC(=O)NC12CCC(Oc3nc(-c4cnn(C)c4)cn4nccc34)(C1)C2 [Example 98, N-(4-((6-(1-methyl-1H-pyrazol-4-yl)pyrazolo[1,5-a]pyrazin-4-yl)oxy)bicyclo[2.1.1]hexan-1-yl)acrylamide] | < 0.001 | 1 to 10 | 
6 | C[C@@H]1O[C@H]1C(=O)N[C@H]1CC[C@@H](Oc2nc(-c3cnn(C)c3)cn3nccc23)C1 (single isomer, unassigned) [Example 148] | 0.001 to 0.01 | < 1 | 
7 | C=CC(=O)N1CC[C@@H]2[C@H]1C(C)(C)[C@H]2Oc1nc(-c2cnn(C)c2)cn2nccc12 [Example 170, 1-((1S,5R,6S)-7,7-dimethyl-6-((6-(1-methyl-1H-pyrazol-4-yl)pyrazolo[1,5-a]pyrazin-4-yl)oxy)-2-azabicyclo[3.2.0]heptan-2-yl)prop-2-en-1-one] | 0.01 to 1 | 1 to 10 | 
8 | C=CC(=O)N1CC[C@@]2(CC[C@@H](Oc3nc(-c4cnn(C)c4)cn4nccc34)C2)C1 (single isomer, unassigned) [Example 207] | 0.001 to 0.01 | 1 to 10 | 
9 | C=CC(=O)N1C[C@H]2C[C@@H](C1)[C@@H]2COc1nc(-c2cnn(C)c2)cn2nccc12 [Example 127, 1-((1R,5S,6r)-6-(((6-(1-methyl-1H-pyrazol-4-yl)pyrazolo[1,5-a]pyrazin-4-yl)oxy)methyl)-3-azabicyclo[3.1.1]heptan-3-yl)prop-2-en-1-one] | < 0.001 |  | IC50 [2, 4]: 1 to 10 µM
10 | C=CC(=O)N1CC2CC(C1)C2COc1nc(-c2cnn(C)c2)cn2nccc12 (stereo not drawn) [Example 126, 1-(6-(((6-(1-methyl-1H-pyrazol-4-yl)pyrazolo[1,5-a]pyrazin-4-yl)oxy)methyl)-3-azabicyclo[3.1.1]heptan-3-yl)prop-2-en-1-one] | < 0.001 | < 1 | 
11 | C=CC(=O)N1CC[C@]2(C1)C[C@](C)(Oc1nc(-c3cnn(C)c3)cn3nccc13)C2 [Example 212, rac-1-((2s,4r)-2-methyl-2-((6-(1-methyl-1H-pyrazol-4-yl)pyrazolo[1,5-a]pyrazin-4-yl)oxy)-6-azaspiro[3.4]octan-6-yl)prop-2-en-1-one] | 0.001 to 0.01 |  | IC50 [2, 4]: 1 to 10 µM
12 | C=CC(=O)N1C[C@H]2C[C@@H](Oc3nc(-c4cnn(C)c4)cn4ncc(C)c34)[C@H]2C1 [Example 197, 1-((1S,5R,6R)-6-((3-methyl-6-(1-methyl-1H-pyrazol-4-yl)pyrazolo[1,5-a]pyrazin-4-yl)oxy)-3-azabicyclo[3.2.0]heptan-3-yl)prop-2-en-1-one] | < 0.001 | < 1 | 
13 | C=CC(=O)N1CCC[C@H](Oc2nc(-c3ccc(=O)n(C)c3)cn3nccc23)CC1 (single isomer, unassigned) [Example 71 E1] | 0.001 to 0.01 | < 1 | 
14 | C=CC(=O)N1CCC[C@H](COc2nc(-c3cnn(C)c3)cn3nccc23)C1 [Example 14, (S)-1-(3-(((6-(1-methyl-1H-pyrazol-4-yl)pyrazolo[1,5-a]pyrazin-4-yl)oxy)methyl)piperidin-1-yl)prop-2-en-1-one] | 0.001 to 0.01 | > 10 | 
15 | C=CC(=O)N(C)[C@H]1C[C@H](Oc2nc(-c3cnn(C)c3)cn3ncc(C)c23)C1 [Example 60, N-methyl-N-((trans)-3-((3-methyl-6-(1-methyl-1H-pyrazol-4-yl)pyrazolo[1,5-a]pyrazin-4-yl)oxy)cyclobutyl)acrylamide] | < 0.001 | > 10 | 
16 | C=CC(=O)N1C[C@H]2C[C@@H](Oc3nc(-c4cnn(C)c4)cn4nccc34)C[C@@H]1C2 [Example 167, 1-((1R,3R,5S)-3-((6-(1-methyl-1H-pyrazol-4-yl)pyrazolo[1,5-a]pyrazin-4-yl)oxy)-6-azabicyclo[3.2.1]octan-6-yl)prop-2-en-1-one] |  | < 1 | 
17 | Cn1cc(-c2cn3nccc3c(OC3CCN(C(=O)/C=C\CCl)CC3)n2)cn1 [Example 8, (Z)-4-chloro-1-(4-((6-(1-methyl-1H-pyrazol-4-yl)pyrazolo[1,5-a]pyrazin-4-yl)oxy)piperidin-1-yl)but-2-en-1-one] |  | 1 to 10 | 
18 | C=CC(=O)N(C)[C@@H]1CCC[C@H](Oc2nc(-c3cnn(C)c3)cn3nccc23)C1 [Example 176, N-methyl-N—((1R,3S)-3-((6-(1-methyl-1H-pyrazol-4-yl)pyrazolo[1,5-a]pyrazin-4-yl)oxy)cyclohexyl)acrylamide] |  | 1 to 10 | 
19 | C=CC(=O)N1CC[C@@H](Oc2nc(-c3cnn(C)c3)cn3nccc23)C1 [Example 11, (R)-1-(3-((6-(1-methyl-1H-pyrazol-4-yl)pyrazolo[1,5-a]pyrazin-4-yl)oxy)pyrrolidin-1-yl)prop-2-en-1-one] |  | > 10 | 
20 | C=CC(=O)N(C)[C@H]1C[C@](C)(Oc2nc(-c3cnn(C)c3)cn3nccc23)C1 [Example 217, N-methyl-N-((1r,3r)-3-methyl-3-((6-(1-methyl-1H-pyrazol-4-yl)pyrazolo[1,5-a]pyrazin-4-yl)oxy)cyclobutyl)acrylamide] |  |  | IC50 ([2]; Homo sapiens, B-cell): 1 to 10 µM
21 | C=CC(=O)N(C)[C@H]1C[C@@H](Oc2nc(-c3cnn(C)c3)cn3nccc23)C1 [Example 215, N-methyl-N-((cis)-3-((6-(1-methyl-1H-pyrazol-4-yl)pyrazolo[1,5-a]pyrazin-4-yl)oxy)cyclobutyl)acrylamide] |  | 1 to 10 | 
22 | C=CC(=O)N1CCC[C@@H](Oc2nc(-c3cnn(C)c3)cn3nccc23)CC1 [Example 29, (R)-1-(4-((6-(1-methyl-1H-pyrazol-4-yl)pyrazolo[1,5-a]pyrazin-4-yl)oxy)azepan-1-yl)prop-2-en-1-one] |  | < 1 | 
23 | C=CC(=O)N1C[C@H]2C[C@](C)(Oc3nc(-c4cnn(C)c4)cn4nccc34)[C@H]2C1 [Example 200, 1-((1S,5R,6S)-6-methyl-6-((6-(1-methyl-1H-pyrazol-4-yl)pyrazolo[1,5-a]pyrazin-4-yl)oxy)-3-azabicyclo[3.2.0]heptan-3-yl)prop-2-en-1-one] |  | < 1 | 
24 | C=CC(=O)N(C)[C@H]1CCC[C@@H](Oc2nc(-c3cnn(C)c3)cn3nccc23)C1 [Example 175, N-methyl-N-((1S,3R)-3-((6-(1-methyl-1H-pyrazol-4-yl)pyrazolo[1,5-a]pyrazin-4-yl)oxy)cyclohexyl)acrylamide] |  | < 1 | 
25 | C=CC(=O)N(C)[C@H]1C[C@H](Oc2nc(-c3cnn(C)c3)cn3nccc23)C1 [Example 185, N-methyl-N-((trans)-3-((6-(1-methyl-1H-pyrazol-4-yl)pyrazolo[1,5-a]pyrazin-4-yl)oxy)cyclobutyl)acrylamide] |  | 1 to 10 | 
26 | C=CC(=O)N1C[C@@H]2[C@H](COc3nc(-c4cnn(C)c4)cn4nccc34)[C@@H]2C1 [Example 221, 1-((1R,5S,6s)-6-(((6-(1-methyl-1H-pyrazol-4-yl)pyrazolo[1,5-a]pyrazin-4-yl)oxy)methyl)-3-azabicyclo[3.1.0]hexan-3-yl)prop-2-en-1-one] |  | 1 to 10 | 
27 | C=CC(=O)N1C[C@@H]2C[C@H](Oc3nc(-c4cnn(C)c4)cn4nccc34)C[C@H]1C2 [Example 168, 1-((1S,3S,5R)-3-((6-(1-methyl-1H-pyrazol-4-yl)pyrazolo[1,5-a]pyrazin-4-yl)oxy)-6-azabicyclo[3.2.1]octan-6-yl)prop-2-en-1-one] |  | 1 to 10 | 
28 | C=CC(=O)N(C)C12CCC(Oc3nc(-c4cnn(C)c4)cn4nccc34)(C1)C2 [Example 99, N-methyl-N-(4-((6-(1-methyl-1H-pyrazol-4-yl)pyrazolo[1,5-a]pyrazin-4-yl)oxy)bicyclo[2.1.1]hexan-1-yl)acrylamide] |  | < 1 | 
29 | C=CC(=O)N(C)[C@]1(C)C[C@H](Oc2nc(-c3cnn(C)c3)cn3nccc23)C1 [Example 158, Cis N-methyl-N-(1-methyl-3-((6-(1-methyl-1H-pyrazol-4-yl)pyrazolo[1,5-a]pyrazin-4-yl)oxy)cyclobutyl)acrylamide] |  |  | IC50 [2, 4]: < 1 µM
30 | C=CC(=O)N1CC[C@H]2[C@@H]1C[C@@]2(C)Oc1nc(-c2cnn(C)c2)cn2nccc12 [Example 191, 1-((1S,5S,6R)-6-methyl-6-((6-(1-methyl-1H-pyrazol-4-yl)pyrazolo[1,5-a]pyrazin-4-yl)oxy)-2-azabicyclo[3.2.0]heptan-2-yl)prop-2-en-1-one] |  | 1 to 10 | 
